“Also recorded” adds a separate entry of the source.
Tests used:
ERRγ = biological target: T1, ERRγ (Homo sapiens, UniProt P62508); conditions: cited from earlier work
T1 sequence (P62508 1-458): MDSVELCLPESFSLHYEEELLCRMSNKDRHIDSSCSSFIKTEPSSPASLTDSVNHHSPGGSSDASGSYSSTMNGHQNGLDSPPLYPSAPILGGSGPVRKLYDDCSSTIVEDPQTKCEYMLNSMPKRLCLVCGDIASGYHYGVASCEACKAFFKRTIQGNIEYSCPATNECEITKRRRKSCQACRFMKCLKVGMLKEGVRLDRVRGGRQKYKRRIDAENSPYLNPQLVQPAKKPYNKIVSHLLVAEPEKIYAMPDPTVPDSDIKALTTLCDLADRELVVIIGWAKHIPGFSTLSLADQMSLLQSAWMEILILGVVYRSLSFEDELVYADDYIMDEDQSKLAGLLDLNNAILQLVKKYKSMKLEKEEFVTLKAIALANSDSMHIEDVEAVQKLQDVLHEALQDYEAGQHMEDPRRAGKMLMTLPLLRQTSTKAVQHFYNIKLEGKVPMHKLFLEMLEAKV

ERRβ = biological target: T2, ERRβ (Homo sapiens, UniProt O95718); conditions: cited from earlier work
T2 sequence (O95718 1-433): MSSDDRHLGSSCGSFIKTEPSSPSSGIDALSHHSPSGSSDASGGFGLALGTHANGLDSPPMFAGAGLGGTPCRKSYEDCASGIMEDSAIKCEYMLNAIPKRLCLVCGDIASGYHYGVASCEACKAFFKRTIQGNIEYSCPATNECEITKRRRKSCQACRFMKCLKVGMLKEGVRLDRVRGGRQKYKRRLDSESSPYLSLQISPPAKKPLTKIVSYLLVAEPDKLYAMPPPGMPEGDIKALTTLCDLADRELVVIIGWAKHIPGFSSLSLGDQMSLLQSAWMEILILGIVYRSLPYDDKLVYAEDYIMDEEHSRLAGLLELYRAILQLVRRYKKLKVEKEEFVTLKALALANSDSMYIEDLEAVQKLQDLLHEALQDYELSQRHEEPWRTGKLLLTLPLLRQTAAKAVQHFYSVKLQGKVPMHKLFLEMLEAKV

type II muscle = assay: AICAR treatment of mice, SDH staining of muscle cryo-sections; assay type: in vivo; conditions: AICAR 500 mg/kg/day for 4 weeks, intra-peritoneally, male C57Bl/6J mice
Method: Drug treatment. Male C57Bl/6J mice (8 weeks old) were intra-peritoneally injected with vehicle or AICAR (500 mg/kg/day), as previously described (Narkar et al., 2008).
Succinate Dehydrogenase (SDH) Staining. SDH staining was performed on […] cryo-sections of gastrocnemius. Briefly, WT and transgenic sections were incubated at 37° C. for 10 min in substrate buffer [0.2M Phosphate buffer containing sodium succinate (250 mg/10 ml) and NBT (10 mg/10 ml)]. Following incubation, sections were washed three times with water following by two washes each with increasing and decreasing concentrations of acetone (30%, 60%, 90%). Finally, the sections were washed three times with water and mounted in an aqueous mounting media.

[1] = dose 500 mg/kg/day; cited from earlier work
AMPK = conditions: dose 500 mg/kg/day; cited from earlier work

SMILES: Nc1ccc(C(=O)N/N=C/c2ccc(/N=N/c3ccccc3)cc2)cn1 [E6]
- selectivity for ERRγ over ERRα and β (ERRγ; screening assay of Kim et al. 2009): selective for ERRγ but not ERRα and β

SMILES: CC(C)c1ccc(/C=N/NC(=O)c2ccc(O)cc2)cc1 [GSK4716]
- agonist of ERRβ (ERRβ): agonists

SMILES: CCN(CC)c1ccc(C=NNC(=O)c2ccc(O)cc2)cc1 (stereo in doubt) [GSK9089, N-[(E)-[4-(diethylamino)phenyl]methylideneamino]-4-hydroxybenzamide]
- agonist of ERRγ (ERRγ): agonists
- agonist of ERRβ (ERRβ): agonists

SMILES: NC(=O)c1ncn([C@@H]2O[C@H](CO)[C@@H](O)[C@H]2O)c1N [AICAR]
- aerobic transformation of skeletal muscle (SDH staining) (type II muscle): able to direct aspects of skeletal muscle transformation in a fashion similar to ERRγ; also recorded: triggers aerobic transformation of type II muscle
- aerobic performance [1]: improve aerobic performance
- stimulation of AMPK in anaerobic muscle (AMPK): stimulate AMPK in anaerobic muscle

From US20170189485A1, “MODULATION OF ESTROGEN RECEPTOR-RELATED RECEPTOR GAMMA (ERR GAMMA) AND USES THEREFOR” (Salk Institute for Biological Studies, priority 2011, published 2017)
